# Assay results taken from US6342261B1, “Method of preserving foods using noble gases” (American Air Liquide, priority 1992, dated 2002).
# Several values for one entry are separate records, joined by “and”; a condition that tells them apart may be missing. Equal entries are not always repeated.
# Experiments:
# Tyrosinase EC 1.14.18.1 = test: Enzyme activity under gas: tyrosinase; assay type: biochemical; conditions: 25°, optimal reaction conditions, simple saturation of solution with gas
# Description: (§1) Sealed cuvettes containing enzymes representative of and in fact important in food product degradation processes were thoroughly purged and filled with assay gases. Injection of gassed substrate solutions started the reactions, which were generally conducted under optimal conditions. These were monitored […] by scanning uv/vis spectrophotometry. All controls were conducted for oxygen, nitrogen and carbon dioxide. A range of temperatures and pressures were employed. An example protocol is appended. Results were expressed in real-time, and transformed to calculate yield and rate differences for the reaction. Over 50 exemplary enzymes were so assayed. Enzymes selected for examination from various products are assayed in precisely the same manner, but always in terms of relative activity in comparison with that product in air or another control gas or gas mixture.
# (§2) The follwing Table summarizes the maximum inhibition of enzymes activity realized with various noble gases under various storage conditions.
# at 25° and optimal reaction conditions, simple saturation of solution with gas: […]
# Yeasts and molds = test: Yeast and mold growth on bread and pasta under gases; assay type: cell-based
# Description: (§3) Many different products were assayed under a wide variety of temperatures and pressures, packaging treatments, and post-packaging handling. In the general experiment, sterile pouches of impermeable film were filled with freshly-obtained food products under recommended handling regimes. Each was then purged thoroughly with the gas mixture to be tested. Then sealed, the pouch was further treated by cooking, cold storage, or other parameter, or else was not. The sealed pouch was stored at room, cold, or freezing temperature, and periodically sampled for microorganism counts (total, aerobic, anaerobic, Pseudomonas, Lactobacilli). It was also studied for observable deterioration and scored. Some samples were subjected to appropriate chemical analysis. Others were sampled for specific enzyme activities as above. All told, the average experiment consisted of replicate samples of product being assayed for microbial counts, microbial identifications, enyzme activities, chemical oxidation, discoloration, odor and/or taste changes, and final carbon dioxide and oxygen concentrations.
# Molds = test: Total microorganisms from product trials: molds; assay type: cell-based
# Description: as §3, with “concentrations. Microbes and enzymes known to be important in the degradation of each individual product were selected for examination and scoring from the literature.” for “concentrations.”
# Aerobes = test: Total microorganisms from product trials: aerobes; assay type: cell-based
# Description: as §3, with “concentrations. Microbes and enzymes known to be important in the degradation of each individual product were selected for examination and scoring from the literature.” for “concentrations.”
# Yeasts = test: Total microorganisms from product trials: yeasts; assay type: cell-based
# Description: as §3, with “concentrations. Microbes and enzymes known to be important in the degradation of each individual product were selected for examination and scoring from the literature.” for “concentrations.”
# [1] = target: Glucose oxidase EC 1.1.3.4 (Aspergillus niger, UniProt P13006); test: Enzyme activity under gas: glucose oxidase; assay type: biochemical
# Description: as §1, §2
# Phosphoglucose isomerase = Phosphoglucose isomerase (Homo sapiens, UniProt P06744); test: Enzyme activity under gas: phosphoglucose isomerase; assay type: biochemical
# Description: as §1, §2
# Lipase EC 3.1.1.3 = test: Enzyme activity under gas: lipase; assay type: biochemical
# Description: as §1, §2
# [2] = tested on: Acetyl-CoA synthetase EC 6.2.1.1; test: Enzyme activity under gas: acetyl-CoA synthetase; assay type: biochemical
# Description: as §1, §2
# [3] = target: Gamma-glutamyl transpeptidase EC 2.3.2.2 (Homo sapiens, UniProt P19440); test: Enzyme activity under gas: gamma-glutamyl transpeptidase; assay type: biochemical
# Description: as §1, §2
# [4] = tested on: Aspartate aminotransferase (EC 2.6.1.1); test: Enzyme activity under gas: aspartate aminotransferase; assay type: biochemical
# Description: as §1, §2
# [5] = Chemical oxidation reactions of food components under gases; conditions: even in the presence of oxygen; pigments, phenolics, ascorbic acid of the product section
# Source text: Other oxygenated species, such as carbon dioxide are reactively destructive.
# That is, in accordance with the present invention, it has been discovered that certain gases can directly affect the oxidation rate of chemicals and not merely slow oxidation only as function of physical and inert displacement of oxygen. Generally, the present invention is effected by contacting the chemicals or chemical preparations during at least a protion of storage thereof to a noble gas, a mixture of noble gases or a gaseous mixture containing at least one noble gas.
# [6] = tested on: Class V. Isomerases (EC 5); test: Enzyme activity under gas: Class V isomerases (enzyme not named); assay type: biochemical
# Description: as §1, §2
# Anaerobes = test: Total microorganisms from product trials: anaerobes; assay type: cell-based
# Description: as §3, with “concentrations. Microbes and enzymes known to be important in the degradation of each individual product were selected for examination and scoring from the literature.” for “concentrations.”
# Chain of Gamma-glutamyl transpeptidase EC 2.3.2.2 (P19440 whole entry): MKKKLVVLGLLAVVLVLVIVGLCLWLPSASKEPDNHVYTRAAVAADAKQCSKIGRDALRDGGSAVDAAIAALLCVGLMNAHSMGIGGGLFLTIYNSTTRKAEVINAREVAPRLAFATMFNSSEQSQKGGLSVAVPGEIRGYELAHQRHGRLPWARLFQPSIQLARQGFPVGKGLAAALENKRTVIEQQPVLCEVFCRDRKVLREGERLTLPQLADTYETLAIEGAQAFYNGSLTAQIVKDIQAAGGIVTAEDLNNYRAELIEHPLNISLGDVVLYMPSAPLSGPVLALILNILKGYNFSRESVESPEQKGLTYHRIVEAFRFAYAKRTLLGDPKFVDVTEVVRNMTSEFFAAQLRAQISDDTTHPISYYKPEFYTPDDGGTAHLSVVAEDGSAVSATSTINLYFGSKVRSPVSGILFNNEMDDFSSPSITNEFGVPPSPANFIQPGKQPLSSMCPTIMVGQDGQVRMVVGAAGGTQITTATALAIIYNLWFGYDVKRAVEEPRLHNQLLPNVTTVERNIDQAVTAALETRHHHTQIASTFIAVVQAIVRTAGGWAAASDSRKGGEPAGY
# Chain of Glucose oxidase EC 1.1.3.4 (P13006 17-605): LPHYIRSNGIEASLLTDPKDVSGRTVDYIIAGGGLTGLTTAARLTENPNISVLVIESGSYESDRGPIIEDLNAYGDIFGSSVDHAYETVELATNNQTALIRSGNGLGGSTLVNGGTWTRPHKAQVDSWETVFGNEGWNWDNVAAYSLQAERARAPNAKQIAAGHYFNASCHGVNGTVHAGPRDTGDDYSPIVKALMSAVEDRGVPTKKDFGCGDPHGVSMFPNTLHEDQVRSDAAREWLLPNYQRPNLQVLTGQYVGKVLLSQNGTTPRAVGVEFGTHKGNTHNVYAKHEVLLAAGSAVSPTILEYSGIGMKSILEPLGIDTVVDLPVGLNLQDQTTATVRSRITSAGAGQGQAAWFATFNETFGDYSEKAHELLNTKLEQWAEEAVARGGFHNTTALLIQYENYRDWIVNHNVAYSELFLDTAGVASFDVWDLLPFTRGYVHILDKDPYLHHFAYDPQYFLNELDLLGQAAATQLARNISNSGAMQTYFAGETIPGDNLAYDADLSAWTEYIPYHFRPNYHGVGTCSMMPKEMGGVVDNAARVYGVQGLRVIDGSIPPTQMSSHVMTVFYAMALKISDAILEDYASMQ
smiles,measurement,setting,value
"O=C=O [CO2, carbon dioxide, reference compound]","Result (inhibition vs air), maximum inhibition of enzyme activity",Tyrosinase EC 1.14.18.1,0%
same,depression of yeasts and molds with respect to nitrogen or air,Yeasts and molds; Bread,may be superior
same,depression of yeasts and molds with respect to nitrogen or air,Yeasts and molds; Pasta,may be superior
same,% Inhibition Compared to 100% Air,Molds; Carrots,3%
same,% Inhibition Compared to 100% Air,Molds; Fish Fillets,18%
same,% Inhibition Compared to 100% Air,"Molds; Green Beans, Refrigerated",2%
same,% Inhibition Compared to 100% Air,"Molds; Green Beans, Room Temperature",3%
same,% Inhibition Compared to 100% Air,Molds; Ground Beef,2%
same,% Inhibition Compared to 100% Air,Molds; Lettuce,2%
same,% Inhibition Compared to 100% Air,Molds; Mixed Salad (Chef Salad),4%
same,% Inhibition Compared to 100% Air,Molds; Shrimp,2%
same,% Inhibition Compared to 100% Air,Molds; Smelt,29%
same,% Inhibition Compared to 100% Air,Molds; Steaks,17%
same,% Inhibition Compared to 100% Air,Molds; Strawberries,100%
same,% Inhibition Compared to 100% Air,Molds; Tomatoes,62%
same,% Inhibition Compared to 100% Air,Aerobes; Carrots,24%
same,% Inhibition Compared to 100% Air,Aerobes; Fish Fillets,14%
same,% Inhibition Compared to 100% Air,"Aerobes; Green Beans, Refrigerated",26%
same,% Inhibition Compared to 100% Air,"Aerobes; Green Beans, Room Temperature",10%
same,% Inhibition Compared to 100% Air,Aerobes; Ground Beef,9%
same,% Inhibition Compared to 100% Air,Aerobes; Lettuce,9%
same,% Inhibition Compared to 100% Air,Aerobes; Mixed Salad (Chef Salad),2%
same,% Inhibition Compared to 100% Air,Aerobes; Shrimp,4%
same,% Inhibition Compared to 100% Air,Aerobes; Steaks,21%
same,% Inhibition Compared to 100% Air,Aerobes; Strawberries,48%
same,% Inhibition Compared to 100% Air,Aerobes; Tomatoes,92%
same,% Inhibition Compared to 100% Air,Yeasts; Carrots,35%
same,% Inhibition Compared to 100% Air,Yeasts; Fish Fillets,36%
same,% Inhibition Compared to 100% Air,"Yeasts; Green Beans, Refrigerated",55%
same,% Inhibition Compared to 100% Air,"Yeasts; Green Beans, Room Temperature",19%
same,% Inhibition Compared to 100% Air,Yeasts; Ground Beef,4%
same,% Inhibition Compared to 100% Air,Yeasts; Lettuce,4%
same,% Inhibition Compared to 100% Air,Yeasts; Mixed Salad (Chef Salad),63%
same,% Inhibition Compared to 100% Air,Yeasts; Shrimp,8%
same,% Inhibition Compared to 100% Air,Yeasts; Smelt,0.8%
same,% Inhibition Compared to 100% Air,Yeasts; Steaks,15%
same,% Inhibition Compared to 100% Air,Yeasts; Strawberries,32%
same,% Inhibition Compared to 100% Air,Yeasts; Tomatoes,80%
"[Ne] [Ne, neon]","Result (inhibition vs air), maximum inhibition of enzyme activity",Tyrosinase EC 1.14.18.1,−46.7%
same,"Result (inhibition), maximum inhibition of enzyme activity",[1],−61.7%
same,Result,Phosphoglucose isomerase,−45%
same,"Result, With Lipase",Lipase EC 3.1.1.3,−15%
same,Result,[2],−15%
same,"Result (inhibition), maximum inhibition of enzyme activity",[3],−3%
same,"Result (inhibition), maximum inhibition of enzyme activity",[4],−12%
"[Xe] [Xe, xenon]","Result (inhibition), maximum inhibition of enzyme activity",[1],−91.6% (inhibition)
same,Result,Phosphoglucose isomerase,−61%
same,"Result, With Lipase",Lipase EC 3.1.1.3,−25.6%
same,Result,[2],−18%
same,"Result (inhibition), maximum inhibition of enzyme activity",[3],−7% (inhibition)
same,"Result (inhibition), maximum inhibition of enzyme activity",[4],−17% (inhibition)
"N#N [Gas N2, nitrogen, reference compound]","Result (inhibition vs air), maximum inhibition of enzyme activity",Tyrosinase EC 1.14.18.1,0%
same,"inhibition of chemical oxidation, order of effect of the gases",[5],has no such ability
"[Kr] [Kr, krypton]","Result (inhibition vs air), maximum inhibition of enzyme activity",Tyrosinase EC 1.14.18.1,−73%
same,"Result (inhibition), maximum inhibition of enzyme activity",[1],−92.7%
same,"Result, With Lipase",Lipase EC 3.1.1.3,−25%
same,Result,[2],−16%
same,"Result (inhibition), maximum inhibition of enzyme activity",[3],−8%
same,"Result (inhibition), maximum inhibition of enzyme activity",[4],−82%
"[Ar] [Ar, argon]","Result (inhibition vs air), maximum inhibition of enzyme activity",Tyrosinase EC 1.14.18.1,−60%
same,"Result (inhibition), maximum inhibition of enzyme activity",[1],−85.8%
same,"Result, With Lipase",Lipase EC 3.1.1.3,−18%
same,inhibition (up to),Lipase EC 3.1.1.3,up to −20%
same,% Inhibition Compared to 100% Air,Molds; Carrots,20%
same,% Inhibition Compared to 100% Air,Molds; Fish Fillets,15%
same,% Inhibition Compared to 100% Air,"Molds; Green Beans, Refrigerated",25%
same,% Inhibition Compared to 100% Air,"Molds; Green Beans, Room Temperature",15%
same,% Inhibition Compared to 100% Air,Molds; Ground Beef,4%
same,% Inhibition Compared to 100% Air,Molds; Lettuce,4%
same,% Inhibition Compared to 100% Air,Molds; Mixed Salad (Chef Salad),2%
same,% Inhibition Compared to 100% Air,Molds; Shrimp,5%
same,% Inhibition Compared to 100% Air,Molds; Smelt,22%
same,% Inhibition Compared to 100% Air,Molds; Steaks,27%
same,% Inhibition Compared to 100% Air,Molds; Strawberries,80%
same,% Inhibition Compared to 100% Air,Molds; Tomatoes,51%
same,Result,[2],−75%
same,% Inhibition Compared to 100% Air,Aerobes; Carrots,33%
same,% Inhibition Compared to 100% Air,Aerobes; Fish Fillets,13%
same,% Inhibition Compared to 100% Air,"Aerobes; Green Beans, Refrigerated",11%
same,% Inhibition Compared to 100% Air,"Aerobes; Green Beans, Room Temperature",2%
same,% Inhibition Compared to 100% Air,Aerobes; Ground Beef,0.4%
same,% Inhibition Compared to 100% Air,Aerobes; Lettuce,0.4%
same,% Inhibition Compared to 100% Air,Aerobes; Mixed Salad (Chef Salad),12%
same,% Inhibition Compared to 100% Air,Aerobes; Shrimp,1%
same,% Inhibition Compared to 100% Air,Aerobes; Steaks,13%
same,% Inhibition Compared to 100% Air,Aerobes; Strawberries,40%
same,% Inhibition Compared to 100% Air,Aerobes; Tomatoes,96%
same,"Result (inhibition), maximum inhibition of enzyme activity",[3],−5%
same,% Inhibition Compared to 100% Air,Yeasts; Carrots,49%
same,% Inhibition Compared to 100% Air,Yeasts; Fish Fillets,35%
same,% Inhibition Compared to 100% Air,"Yeasts; Green Beans, Refrigerated",20%
same,% Inhibition Compared to 100% Air,"Yeasts; Green Beans, Room Temperature",10%
same,% Inhibition Compared to 100% Air,Yeasts; Ground Beef,28%
same,% Inhibition Compared to 100% Air,Yeasts; Lettuce,28%
same,% Inhibition Compared to 100% Air,Yeasts; Mixed Salad (Chef Salad),47%
same,% Inhibition Compared to 100% Air,Yeasts; Shrimp,2%
same,% Inhibition Compared to 100% Air,Yeasts; Smelt,17%
same,% Inhibition Compared to 100% Air,Yeasts; Steaks,16%
same,% Inhibition Compared to 100% Air,Yeasts; Strawberries,12%
same,% Inhibition Compared to 100% Air,Yeasts; Tomatoes,38%
same,"Result, Class V isomerases",[6],−37%
same,"Result (inhibition), maximum inhibition of enzyme activity",[4],−17%
same,% Inhibition Compared to 100% CO2,Anaerobes; Carrots,9%
same,% Inhibition Compared to 100% CO2,Anaerobes; Fish Fillets,2%
same,% Inhibition Compared to 100% CO2,"Anaerobes; Green Beans, Refrigerated",61%
same,% Inhibition Compared to 100% CO2,Anaerobes; Ground Beef,16%
same,% Inhibition Compared to 100% Air,Anaerobes; Lettuce,16%
same,% Inhibition Compared to 100% CO2,Anaerobes; Mixed Salad (Chef Salad),6% and 1%
same,% Inhibition Compared to 100% CO2,Anaerobes; Shrimp,4%
same,% Inhibition Compared to 100% CO2,Anaerobes; Smelt,30%
same,% Inhibition Compared to 100% CO2,Anaerobes; Steaks,6%
same,% Inhibition Compared to 100% CO2,Anaerobes; Tomatoes,22%
